Measurements reported in US6737383B1, “Herbicidal oxadiazolidines” (priority 1999, dated 2004).

How the values were obtained:
smallflower flatsedge = experiment: Test B flood test smallflower flatsedge; type: in vivo, Cyperus difformis
How it was run: (§1)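 Plants were grown to the 2-leaf stage before treatment with test chemical, then held in a greenhouse for twelve to sixteen days. Injury was visually rated against untreated controls on a 0–10 scale, where 0 is no effect and 10 is complete control.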

surinam grass = experiment: Test B pre/postemergence surinam grass; type: in vivo, Brachiaria decumbens
How it was run: (§2)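 Herbicidal effect was estimated by eye on a ten-point control scale after plants spent twelve to sixteen days in a greenhouse following soil or foliar treatment. Foliar sprays targeted plants at one to four leaves; all doses were formulated in a non-phytotoxic solvent with surfactant.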

wheat = experiment: Test B pre/postemergence wheat; type: in vivo, Triticum aestivum
How it was run: as §2

wild oat = experiment: Test B pre/postemergence wild oat; type: in vivo, Avena fatua
How it was run: as §2

crabgrass = experiment: Test B pre/postemergence crabgrass; type: in vivo, Digitaria sanguinalis
How it was run: as §2

pigweed = experiment: Test B pre/postemergence pigweed; type: in vivo, Amaranthus retroflexus
How it was run: as §2

velvetleaf = experiment: Test B pre/postemergence velvetleaf; type: in vivo, Abutilon theophrasti
How it was run: as §2

blackgrass = experiment: Test B pre/postemergence blackgrass; type: in vivo, Alopecurus myosuroides
How it was run: as §2

duck salad = experiment: Test B flood test duck salad; type: in vivo, Heteranthera limosa
How it was run: as §1

purple nutsedge = experiment: Test B pre/postemergence purple nutsedge; type: in vivo, Cyperus rotundus
How it was run: as §2

cocklebur = experiment: Test B pre/postemergence cocklebur; type: in vivo, Xanthium strumarium
How it was run: as §2

sugar beet = experiment: Test B pre/postemergence sugar beet; type: in vivo, Beta vulgaris
How it was run: as §2

morningglory = experiment: Test B pre/postemergence morningglory; type: in vivo, Ipomoea hederacea
How it was run: as §2

corn = experiment: Test B pre/postemergence corn; type: in vivo, Zea mays
How it was run: as §2

bedstraw = experiment: Test B pre/postemergence bedstraw; type: in vivo, Galium aparine
How it was run: as §2

rape = experiment: Test B pre/postemergence rape; type: in vivo, Brassica napus
How it was run: as §2

[1] = Postemergence, Rate 62 g/ha, scale 0 to 10, 0 is no effect, 10 is complete control
[2] = Rate 125 g/ha, Postemergence section (flood test species), scale 0 to 10, 0 no effect, 10 complete control
[3] = flood test, listed under Postemergence, Rate 250 g/ha, scale 0 to 10, 0 no effect, 10 complete control
[4] = Postemergence, Rate 250 g/ha, scale 0 to 10, 0 no effect, 10 complete control
[5] = Preemergence, Rate 62 g/ha, scale 0 to 10, 0 is no effect, 10 is complete control
[6] = Preemergence, Rate 125 g/ha, scale 0 to 10 (0 no effect, 10 complete control)
[7] = Preemergence, Rate 250 g/ha, scale of 0 to 10 where 0 is no effect and 10 is complete control
[8] = Preemergence, Rate 500 g/ha, scale 0 (no effect) to 10 (complete control)
[9] = Rate 125 g/ha, Postemergence, scale 0 to 10, 0 no effect, 10 complete control
[10] = Rate 500 g/ha, Postemergence, 0 to 10 scale (0 no effect, 10 complete control)

CC(C)N(C(=O)n1oc(=O)n(-c2ccc(Cl)cc2C(F)(F)F)c1=O)c1ccc(F)cc1 [Compound 20]
S. Flatsedge plant response rating (smallflower flatsedge; [1]): 0
S. Flatsedge plant response rating (smallflower flatsedge; [2]): 0
S. Flatsedge plant response rating (smallflower flatsedge; [3]): 0
B. signalgrass plant response rating (surinam grass; [1]): 0
B. signalgrass plant response rating (surinam grass; [4]): 0
Plant response rating, B. signalgrass (surinam grass; [5]): 0
Plant response rating, B. signalgrass (surinam grass; [6]): 0
Plant response rating, B. signalgrass (surinam grass; [7]): 0
B. signalgrass plant response rating (surinam grass; [8]): 0
B. signalgrass plant response rating (surinam grass; [9]): 0
B. signalgrass plant response rating (surinam grass; [10]): 0
Wheat plant response rating (wheat; [1]): 0
Wheat plant response rating (wheat; [4]): 0
Plant response rating, Wheat (wheat; [5]): 0
Plant response rating, Wheat (wheat; [6]): 0
Plant response rating, Wheat (wheat; [7]): 0
Wheat plant response rating (wheat; [8]): 0
Wheat plant response rating (wheat; [9]): 0
Wild oats plant response rating (wild oat; [1]): 0
Wild oats plant response rating (wild oat; [4]): 0
Plant response rating, Wild oats (wild oat; [6]): 0
Plant response rating, Wild oats (wild oat; [7]): 0
Wild oats plant response rating (wild oat; [8]): 0
Wild oats plant response rating (wild oat; [9]): 0
Crabgrass plant response rating (crabgrass; [1]): 0
Crabgrass plant response rating (crabgrass; [4]): 3
Plant response rating, Crabgrass (crabgrass; [5]): 1
Plant response rating, Crabgrass (crabgrass; [6]): 2
Plant response rating, Crabgrass (crabgrass; [7]): 6
Crabgrass plant response rating (crabgrass; [8]): 7
Crabgrass plant response rating (crabgrass; [9]): 0
Crabgrass plant response rating (crabgrass; [10]): 7
Redroot pigweed plant response rating (pigweed; [1]): 3
Redroot pigweed plant response rating (pigweed; [4]): 3
Plant response rating, Redroot pigweed (pigweed; [5]): 0
Plant response rating, Redroot pigweed (pigweed; [6]): 2
Plant response rating, Redroot pigweed (pigweed; [7]): 4
Redroot pigweed plant response rating (pigweed; [8]): 9
Redroot pigweed plant response rating (pigweed; [9]): 3
Redroot pigweed plant response rating (pigweed; [10]): 4
Velvetleaf plant response rating (velvetleaf; [1]): 0
Velvetleaf plant response rating (velvetleaf; [4]): 0
Plant response rating, Velvetleaf (velvetleaf; [5]): 0
Plant response rating, Velvetleaf (velvetleaf; [6]): 0
Plant response rating, Velvetleaf (velvetleaf; [7]): 0
Velvetleaf plant response rating (velvetleaf; [8]): 0
Velvetleaf plant response rating (velvetleaf; [9]): 0
Blackgrass plant response rating (blackgrass; [1]): 0
Blackgrass plant response rating (blackgrass; [4]): 0
Plant response rating, Blackgrass (blackgrass; [5]): 0
Plant response rating, Blackgrass (blackgrass; [6]): 1
Plant response rating, Blackgrass (blackgrass; [7]): 1
Blackgrass plant response rating (blackgrass; [8]): 5
Blackgrass plant response rating (blackgrass; [9]): 0
Blackgrass plant response rating (blackgrass; [10]): 2
Ducksalad plant response rating (duck salad; [1]): 0
Ducksalad plant response rating (duck salad; [2]): 0
Ducksalad plant response rating (duck salad; Rate 500 g/ha, Postemergence section of Table B, 0 to 10 scale (0 no effect, 10 complete control)): 0
Ducksalad plant response rating (duck salad; [3]): 0
Nutsedge plant response rating (purple nutsedge; [1]): 0
Nutsedge plant response rating (purple nutsedge; [4]): 0
Plant response rating, Nutsedge (purple nutsedge; [5]): 0
Plant response rating, Nutsedge (purple nutsedge; [6]): 0
Plant response rating, Nutsedge (purple nutsedge; [7]): 0
Nutsedge plant response rating (purple nutsedge; [8]): 0
Nutsedge plant response rating (purple nutsedge; [9]): 0
Nutsedge plant response rating (purple nutsedge; [10]): 0
Cocklebur plant response rating (cocklebur; [1]): 0
Cocklebur plant response rating (cocklebur; [4]): 0
Plant response rating, Cocklebur (cocklebur; [5]): 0
Plant response rating, Cocklebur (cocklebur; [6]): 0
Plant response rating, Cocklebur (cocklebur; [7]): 0
Cocklebur plant response rating (cocklebur; [8]): 0
Cocklebur plant response rating (cocklebur; [9]): 0
Cocklebur plant response rating (cocklebur; [10]): 0
Sugarbeets plant response rating (sugar beet; [1]): 0
Plant response rating, Sugarbeets (sugar beet; [5]): 0
Plant response rating, Sugarbeets (sugar beet; [6]): 0
Plant response rating, Sugarbeets (sugar beet; [7]): 2
Sugarbeets plant response rating (sugar beet; [8]): 7
Sugarbeets plant response rating (sugar beet; [9]): 0
Morningglory plant response rating (morningglory; [1]): 4
Morningglory plant response rating (morningglory; [4]): 7
Plant response rating, Morningglory (morningglory; [5]): 0
Plant response rating, Morningglory (morningglory; [6]): 0
Plant response rating, Morningglory (morningglory; [7]): 0
Morningglory plant response rating (morningglory; [8]): 0
Morningglory plant response rating (morningglory; [9]): 7
Morningglory plant response rating (morningglory; [10]): 8
Corn plant response rating (corn; [1]): 0
Corn plant response rating (corn; [4]): 0
Plant response rating, Corn (corn; [5]): 0
Plant response rating, Corn (corn; [6]): 0
Plant response rating, Corn (corn; [7]): 0
Corn plant response rating (corn; [8]): 0
Corn plant response rating (corn; [9]): 0
Corn plant response rating (corn; [10]): 0
Bedstraw plant response rating (bedstraw; [1]): 3
Bedstraw plant response rating (bedstraw; [4]): 4
Plant response rating, Bedstraw (bedstraw; [5]): 0
Plant response rating, Bedstraw (bedstraw; [6]): 0
Plant response rating, Bedstraw (bedstraw; [7]): 2
Bedstraw plant response rating (bedstraw; [8]): 6
Bedstraw plant response rating (bedstraw; [9]): 3
Bedstraw plant response rating (bedstraw; [10]): 5
Rape plant response rating (rape; [1]): 0
Rape plant response rating (rape; [4]): 0
Plant response rating, Rape (rape; [5]): 0
Plant response rating, Rape (rape; [6]): 0
Plant response rating, Rape (rape; [7]): 0
Rape plant response rating (rape; [8]): 0
Rape plant response rating (rape; [9]): 0
Rape plant response rating (rape; [10]): 0
